According to paper PMC4351869 (Journal of neuro-oncology, 2011):

Experiments:
recurrent glioblastoma = experiment: Phase II trial NABTC 03-02, progression free survival; type: in vivo, patients; details: 2000 mg i.v. twice weekly after resection
[1] = Treatment-related toxicity in the phase II trial; type: in vivo, patients
[2] = Tumor tissue concentrations of cilengitide at resection, HPLC-MS/MS; type: in vivo, patients; details: human, iv
clinical = details: human, in vivo, iv

CC(C)[C@H]1C(=O)N[C@@H](CCCNC(=N)N)C(=O)NCC(=O)N[C@@H](CC(=O)O)C(=O)N[C@H](Cc2ccccc2)C(=O)N1C [Cilengitide]
6-month PFS rate (recurrent glioblastoma; 26 patients evaluable for efficacy): 12%
median PFS (recurrent glioblastoma; Kaplan-Meier, 95% confidence interval 4–16 weeks): 8 weeks
tolerability ([1]; 30 patients, 500 or 2000 mg before surgery, 2000 mg i.v. twice weekly after): very well tolerated
dose reductions for toxicity ([1]; in vivo): no dose reductions for toxicity
treatment related deaths ([1]; in vivo): no treatment related deaths
number of grade 3–4 toxicities ([1]; mainly lymphopenia, likely related to prior cytotoxic chemotherapy): 9
tissue level at time at 24 h ([2]; 500 mg): 919 ng/g
tissue level at time at 24 h ([2]; 2000 mg): 1410 ng/g
level at 24 h (clinical; 500 mg): 333 ng/mL
level at 24 h (clinical; 2000 mg): 386 ng/mL
